Assay results taken from patent publication US20120190707A1, “SELECTIVE INHIBITORS OF AKT AND METHODS OF USING SAME” (priority 2008, published 2012).
Entries after “also recorded” stand apart in the source; their conditions may differ.

Legend:
AKT [1] = test: pAKT473 and total AKT by western analysis in UACC 903 (PTEN-) cells; assay type: cell-based, human
Method: FIG. 6 describes the effect of BI-69A11 on phosphorylation and total levels of AKT in UACC 903 (PTEN−) cells. (A) UACC903 and the modified clone 29-1 (PTEN+) cells were exposed to 10 micro.M BI-69A11 and 50 micro.M LY294002 (a PI3K inhibitor) and the levels of pAKT473 and total AKT determined by western analysis. […] (SF=Serum Free). (B) BI-69A11 inhibits PRAS40 phosphorylation. UACC903 melanoma cells or 29-1 cells (PTEN+) were subjected to treatment with IGF-1 (20 ng/mL) and the level of PRAS40 phosphorylation was assessed. […] The cells were collected, lysed and levels of pPRAS40 and total PRAS40 determined by western analysis. (C) AKT association with HSP90 is inhibited by BI-69A11. Human melanoma cells were treated with BI-69A11 (10.micro.M) or DMSO control for 4 h, followed by protein preparation and immunoprecipitation using antibodies to pan-AKT. MG132 treatment, when used, initiated 1 h prior to treatment and lasted up to the preparation of proteins (total of 5 h). The right panel depicts analysis of total lysates.
The term “cell lines”, as used herein, unless otherwise indicated, refer to UACC 903 cells and 29-1 cells. The cells were cultured in DMEM, supplemented with 10% FBS and maintained at 37° C. in 5% CO2. Cells were plated to 75% confluency and grown overnight at 37° C. Plates were rinsed twice with a serum-free DMEM medium and the appropriate concentration of the compound was added to the plates. Cells were harvested at different timepoints by scraping (for western blotting) or trypsinization (for cell proliferation assay) where appropriate.
Thus, we set to test the possibility that BI-69A11's ability to inhibit AKT activity may stem from inhibition of AKT protein expression (see data below). We thus assessed whether inhibition of AKT Ser473 phosphorylation coincides with its activity, namely the phosphorylation of known AKT substrates. […] Of note, AKT3, the primarily active isoform of AKT in melanoma cells, effectively phosphorylates PRAS40 (Madhunapantula et al., 2007). […]

MeWo melanoma cells = test: Cell death by trypan blue staining, MeWo; assay type: cell-based
Method: (§1) (A) MeWo melanoma cells growing in 60 mm plates were treated with the indicated concentration of the inhibitor for 4 h before proteins were prepared for western blot analysis using the indicated antibodies. Level of beta.actin was monitored as a control for protein loading. (B) Experiment was performed as indicated in panel A, except that cells were harvested after 24 h for analysis of cell death using trypan blue staining. (C) Melanoma (MeWo), prostate cancer (PC3) and breast cancer (MCF7) cells were treated with BI-69A11 at the indicated concentrations; levels of AKT phosphorylation or expression were assessed 4 h later. The level of beta.actin used as a control for protein loading. (D) Experiment was performed as indicated in panel C, except that cells were harvested after 4 h for analysis of cell death using trypan blue staining.
(§2) To evaluate the effectiveness of BI-69A11 on melanoma cells we assessed the effect of different concentrations on AKT phosphorylation in MeWO cells.
For the proliferation assays, cells were treated as described above. However, instead of scraping cells into the serum-free medium, floating cells were collected in a 15 mL centrifuge tube whereas adherent cells trypsinized gently. The total cell population was pooled and counted on a hemocytometer after staining with Trypan Blue.

UACC903 melanoma cells = test: CellTiter Blue Cell Viability Assay in UACC903 cells; assay type: cell-based, human; conditions: 24 h post-treatment
Method: UACC903 melanoma cells were treated with vehicle (0 μM) or the indicated concentrations of BI-69A11, BI-83G10, or BI-98C11. 24 h post-treatment, cell viability was determined using the CellTiter Blue Cell Viability Assay (Promega, Madison Wis.) following the manufacturer's directions.

PARP = PARP cleavage in 903 and 29-1 cells; assay type: cell-based, human; conditions: 2, 4 and 6 hours; listed as BI-69A11
Method: (A) 903 and 29-1 cells were exposed to different concentrations of BI-69A11 or UV light as a positive control and the percentage of cell death determined by trypan blue exclusion assay. (B) PARP cleavage was determined in 903 and 29-1 cells after treatment with BI-69A11 at 2, 4 and 6 hours.
Since AKT activity is important for tumor cell survival, its inhibition is expected to result in cell death. We thus monitored cell death in melanoma cells that were treated with BI-69A11.
(§3) For western blotting techniques, cells were lysed in RIPA buffer containing 50 mM TrisHCl pH7.4, 150 mM NaCl, 2 mM EDTA, 1% NP-40, 0.1% SDS. The protein concentration was estimated using the Coomassie Protein assay kit (Thermo Scientific, Rockford, Ill., USA). Equal concentrations of cell lysate (30-50 ug) were resolved on a 10% polyacrylamide gel and transferred onto Nitrocellulose membrane (GE Amersham). Membranes were blocked for 1-2 hours in either 3% BSA or 5% nonfat dried milk in Tris-buffered saline containing 0.05% Tween 20. Primary antibody incubations were performed overnight at 4° C. with shaking. The blots were washed followed by incubation with a secondary antibody incubation for 1 hour at room temperature. After washing, the blots were scanned on the Odyssey Licor scanner at the appropriate wavelength and the image was captured using the Odyssey software.

AKT [2] = test: AKT phosphorylation and expression by western blot in MeWo melanoma cells; assay type: cell-based
Method: as §1, §2, §3

CHK2 = CHK2 (Homo sapiens, UniProt O96017); test: Invitrogen SelectScreen Kinase Profiling Service; assay type: biochemical
CHK2, sequence (O96017 whole entry): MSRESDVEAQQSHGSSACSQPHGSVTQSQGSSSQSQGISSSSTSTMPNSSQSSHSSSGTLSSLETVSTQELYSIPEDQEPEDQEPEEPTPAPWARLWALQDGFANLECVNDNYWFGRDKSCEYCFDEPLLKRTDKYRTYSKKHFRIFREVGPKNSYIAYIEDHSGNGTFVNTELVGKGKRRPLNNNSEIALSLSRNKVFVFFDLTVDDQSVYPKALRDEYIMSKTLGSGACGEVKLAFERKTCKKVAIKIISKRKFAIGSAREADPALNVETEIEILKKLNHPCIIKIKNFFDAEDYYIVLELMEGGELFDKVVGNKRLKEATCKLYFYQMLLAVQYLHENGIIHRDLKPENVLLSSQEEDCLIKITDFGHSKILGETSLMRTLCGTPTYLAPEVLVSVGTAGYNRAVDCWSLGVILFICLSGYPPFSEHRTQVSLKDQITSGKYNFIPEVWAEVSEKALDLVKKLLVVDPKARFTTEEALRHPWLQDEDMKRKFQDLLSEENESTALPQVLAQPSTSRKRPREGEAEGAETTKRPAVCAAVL
Method: In addition to its inhibition of AKT, BI-69A11 was tested for inhibition of additional protein kinases using the Invitrogen SelectScreen Kinase Profiling Service. The Ser/Thr protein kinase, Checkpoint Kinase 2 (CHK2), is an important component in the cellular response to DNA damage. In response to genotoxic stresses such as g-irradiation, which causes double stranded DNA breaks, the Ataxia Telangiectasia Mutated (ATM) protein kinase is activated, which in turn phosphorylates a number of downstream effectors, such as CHK2. Activation of the ATM-CHK2 axis enforces the DNA damage checkpoint response, halting the cell cycle in order to initiate DNA repair.
To accomplish this, we g-irradiated vehicle- or BI69A11-treated cells and examined ATM and CHK2 phosphorylation, a well-characterized surrogate of activation (FIG. 13). In vehicle-treated cells, g-irradiation led to the robust phosphorylation of ATM and CHK2.

AKT [3] = test: AKT phosphorylation and expression by western blot in PC3 prostate tumor cells; assay type: cell-based; conditions: PC3, 5 and 10 micro.M
Method: as §1
For western blotting techniques, cells were lysed in RIPA buffer containing 50 mM TrisHCl pH7.4, 150 mM NaCl, 2 mM EDTA, 1% NP-40, 0.1% SDS. The protein concentration was estimated using the Coomassie Protein assay kit (Thermo Scientific, Rockford, Ill., USA). Equal concentrations of cell lysate (30-50 ug) were resolved on a 10% polyacrylamide gel and transferred onto Nitrocellulose membrane (GE Amersham). Membranes were blocked for 1-2 hours in either 3% BSA or 5% nonfat dried milk in Tris-buffered saline containing 0.05% Tween 20. […]

O=C(/C=C/c1nc2ccccc2[nH]1)c1c(O)nc2ccc(Cl)cc2c1-c1ccccc1 [Compound 2, (E)-3-(3-(1H-benzo[d]imidazol-2-yl)acryloyl)-6-chloro-4-phenylquinolin-2(1H)-one]
levels of pAKT473 (AKT [1]; 10 micro.M, UACC903 and 29-1 cells, FIG. 6A): Reduced levels of pAKT473
levels of total AKT (AKT [1]; 903 cells, 10 micro.M, increasing time after treatment): reduced levels of total AKT
levels of pAKT Ser473 / AKT phosphorylation (AKT [1]; UACC 903 cells, listed as BI-69A11): dose-dependent decrease; also recorded: effectively blocked
cell death (MeWo melanoma cells; 3 micro.M, within 24 hours): about 60%
cell death (MeWo melanoma cells; 5 micro.M, within 4 hours): about 25%
viability of UACC903 cells (UACC903 melanoma cells): decreased the viability
PARP cleavage, 903 cells compared with 29-1 (PARP): more pronounced in the UAC903 cells; also recorded: Increased PARP cleavage
AKT phosphorylation on S473 (AKT [2]; 3 micro.M, 4 h): partial inhibition
AKT protein levels (AKT [2]; 5 and 10 micro.M): reduced levels of AKT protein
basal level of AKT phosphorylation (AKT [2]; 5 and 10 micro.M, 4 h): effectively inhibited
AKT phosphorylation (AKT [2]; low doses (<0.3 micro.M), 4 h): did not affect
kinase profiling result for CHK2 (CHK2): possible target
AKT protein levels (AKT [3]): reduced levels of AKT protein
basal level of AKT phosphorylation (AKT [3]; 4 h): effectively inhibited
